Measured values reported in ChEMBL document CHEMBL4840355, “Antitumor and toxicity study of mitochondria-targeted triptolide derivatives using triphenylphosphine (TPP+) as a carrier” (Bioorg Med Chem, 2021).
pIC50: −log10 of the molar value. Calls of active or inactive are those of the source. No cut-off for these calls is given here.

Assays:
HepG2 [1] = test: Cytotoxicity against human HepG2 cells assessed as inhibition of cell proliferation measured after 48 hrs by MTT assay; format: functional, cell-based; settings: HepG2, 48 h
L02 = test: Cytotoxicity against human HL7702 cells assessed as inhibition of cell proliferation measured after 48 hrs by MTT assay; format: cell-based; settings: L02, 48 h
PC-3 [2] = test: Cytotoxicity against human PC-3 cells assessed as inhibition of cell proliferation measured after 48 hrs by MTT assay; format: functional, cell-based; settings: PC-3, 48 h
HeLa [3] = test: Cytotoxicity against human HeLa cells assessed as inhibition of cell proliferation measured after 48 hrs by MTT assay; format: functional, cell-based
MCF7 [4] = test: Cytotoxicity against human MCF7 cells assessed as inhibition of cell proliferation measured after 48 hrs by MTT assay; format: functional, cell-based; settings: MCF7, 48 h
PANC-1 [5] = test: Cytotoxicity against human PANC-1 cells assessed as inhibition of cell proliferation measured after 48 hrs by MTT assay; format: functional, cell-based; settings: PANC-1, 48 h
[6] = Cytotoxicity against human HBE cells assessed as inhibition of cell proliferation measured after 48 hrs by MTT assay; format: cell-based
NCI-H1299 [7] = test: Cytotoxicity against human NCI-H1299 cells assessed as inhibition of cell proliferation measured after 48 hrs by MTT assay; format: functional, cell-based; settings: NCI-H1299, 48 h
NCI-H1975 [8] = test: Cytotoxicity against human NCI-H1975 cells assessed as inhibition of cell proliferation measured after 48 hrs by MTT assay; format: functional, cell-based; settings: NCI-H1975, 48 h
[9] = Cytotoxicity against human A549/DDP cells assessed as inhibition of cell proliferation measured after 48 hrs by MTT assay; format: functional, cell-based
HepG2 [10] = test: Antitumor activity against human HepG2 cells xenografted in zebra fish AB assessed as tumor growth inhibition at 1 uM measured after 48 hrs by fluorescence microscopic analysis; format: functional, cell-based
HepG2 [11] = test: Potency index, ratio of TP IC50 to test compound IC50 for cytotoxicity against human HepG2 cells; format: functional
PC-3 [12] = test: Potency index, ratio of TP IC50 to test compound IC50 for cytotoxicity against human PC-3 cells; format: functional
HeLa [13] = test: Potency index, ratio of TP IC50 to test compound IC50 for cytotoxicity against human HeLa cells; format: functional
MCF7 [14] = test: Potency index, ratio of TP IC50 to test compound IC50 for cytotoxicity against human MCF7 cells; format: functional
PANC-1 [15] = test: Potency index, ratio of TP IC50 to test compound IC50 for cytotoxicity against human PANC-1 cells; format: functional
NCI-H1299 [16] = test: Potency index, ratio of TP IC50 to test compound IC50 for cytotoxicity against human NCI-H1299 cells; format: functional
NCI-H1975 [17] = test: Potency index, ratio of TP IC50 to test compound IC50 for cytotoxicity against human NCI-H1975 cells; format: functional
[18] = Potency index, ratio of TP IC50 to test compound IC50 for cytotoxicity against human A549/DDP cells; format: functional
HepG2 [19] = test: Antitumor activity against human HepG2 cells xenografted in zebra fish AB assessed as tumor growth inhibition at 0.5 to 1 uM measured after 48 hrs by fluorescence microscopic analysis; format: functional, cell-based; settings: dose 0.5-1 µM
[20] = Toxicity in zebrafish AB assessed as pericardial edema at 1 uM; parameters: species or system Danio rerio; settings: in vivo
[21] = Toxicity in zebrafish AB assessed as mortality at 0.05 to 2 uM measured at 72 hrs postfertilization; parameters: species or system Danio rerio; settings: in vivo, dose 0.05-2 µM
[22] = Toxicity in zebrafish AB assessed as decrease in body length at 0.25 to 2 uM measured at 72 hrs postfertilization; parameters: species or system Danio rerio; settings: in vivo, dose 0.25-2 µM
[23] = Toxicity in zebrafish AB assessed as increase in embryo malformation rate at 0.5 to 2 uM measured at 72 hrs postfertilization; parameters: species or system Danio rerio; settings: in vivo, dose 0.5-2 µM
[24] = Toxicity in zebrafish AB assessed as decrease in hatching rate at 0.25 to 2 uM measured at 72 hrs postfertilization; parameters: species or system Danio rerio; settings: in vivo, dose 0.25-2 µM
[25] = Hepatotoxicity in transgenic zebrafish Tg(1-fabp:EGFP) assessed as liver damage by measuring decrease in fluorescence intensity and area at 0.5 uM measured after 96 hrs; format: toxicity, tissue-based, Danio rerio; settings: in vivo
[26] = Toxicity in 12-month old zebrafish assessed as mortality at 1.6 uM; parameters: species or system Danio rerio; settings: in vivo

| Structure (SMILES) | pIC50 (HepG2 [1]) | pIC50 (L02) | pIC50 (PC-3 [2]) | pIC50 (HeLa [3]) | pIC50 (MCF7 [4]) | pIC50 (PANC-1 [5]) | pIC50 [6] | pIC50 (NCI-H1299 [7]) | pIC50 (NCI-H1975 [8]) | pIC50 [9] | further results |
| --- | --- | --- | --- | --- | --- | --- | --- | --- | --- | --- | --- |
| CC(C)[C@]12O[C@H]1[C@@H]1O[C@]13[C@]1(O[C@H]1C[C@H]1C4=C(CC[C@@]13C)C(=O)OC4)[C@@H]2OC(=O)CCCCCC[P+](c1ccccc1)(c1ccccc1)c1ccccc1 | 6.87 | 6.50 | 6.84 | 6.57 | 6.50 | 6.62 | 6.87 | 6.62 | 6.84 | < 5.00 |  |
| COc1cccc2c1C(=O)c1c(O)c3c(c(O)c1C2=O)C[C@@](O)(C(=O)CO)C[C@@H]3O[C@H]1C[C@H](N)[C@H](O)[C@H](C)O1 [DOXORUBICIN] | 5.71 | 6.45 | 6.27 | 5.68 |  | 5.51 | 5.90 | 5.89 | 5.57 | 4.97 | Activity (HepG2 [10]): Active |
| CC(C)[C@]12O[C@H]1[C@@H]1O[C@]13[C@]1(O[C@H]1C[C@H]1C4=C(CC[C@@]13C)C(=O)OC4)[C@@H]2OC(=O)CCCCCCBr | 7.19 | 7.12 | 7.38 | 6.60 | 7.04 | 6.68 | 6.94 | 7.05 | 7.01 | < 5.00 |  |
| CCCCCCCCCCC(=O)O[C@@H]1[C@@]2(C(C)C)O[C@H]2[C@@H]2O[C@]23[C@]12O[C@H]2C[C@H]1C2=C(CC[C@@]13C)C(=O)OC2 | 6.53 | 6.73 | 5.90 | 6.33 | 6.33 | 6.49 | 6.82 | 6.48 | 7.02 | < 5.00 |  |
| CC(C)[C@]12O[C@H]1[C@@H]1O[C@]13[C@]1(O[C@H]1C[C@H]1C4=C(CC[C@@]13C)C(=O)OC4)[C@@H]2OC(=O)CCCC[P+](c1ccccc1)(c1ccccc1)c1ccccc1.[Br-] | 4.62 | 4.76 | 4.58 | 4.64 | 4.73 | 4.87 | 5.20 | 5.65 | 5.86 | < 5.00 | Ratio IC50 (HepG2 [11]): 100; Ratio IC50 (PC-3 [12]): 100; Ratio IC50 (HeLa [13]): 100; Ratio IC50 (MCF7 [14]): 100; Ratio IC50 (PANC-1 [15]): 100; Ratio IC50 (NCI-H1299 [16]): 100; Ratio IC50 (NCI-H1975 [17]): 100; Ratio IC50 [18]: 100 |
| CCCCC(=O)O[C@@H]1[C@@]2(C(C)C)O[C@H]2[C@@H]2O[C@]23[C@]12O[C@H]2C[C@H]1C2=C(CC[C@@]13C)C(=O)OC2 | 6.31 | 6.50 | 6.01 | 6.09 | 5.77 | 6.85 | 6.49 | 6.30 | 6.28 | < 5.00 |  |
| CCCCCC(=O)O[C@@H]1[C@@]2(C(C)C)O[C@H]2[C@@H]2O[C@]23[C@]12O[C@H]2C[C@H]1C2=C(CC[C@@]13C)C(=O)OC2 | 7.13 | 6.82 | 6.80 | 6.47 | 6.19 | 7.07 | 7.00 | 6.67 | 7.09 | < 5.00 |  |
| CC(C)[C@]12O[C@H]1[C@@H]1O[C@]13[C@]1(O[C@H]1C[C@H]1C4=C(CC[C@@]13C)C(=O)OC4)[C@@H]2OC(=O)CCCCCCC[P+](c1ccccc1)(c1ccccc1)c1ccccc1 | 7.22 | 6.90 | 6.79 | 6.48 | 6.51 | 6.78 | 6.91 | 6.69 | 6.72 | < 5.00 |  |
| CC(C)[C@]12O[C@H]1[C@@H]1O[C@]13[C@]1(O[C@H]1C[C@H]1C4=C(CC[C@@]13C)C(=O)OC4)[C@@H]2OC(=O)CCCCCCCCCCBr | 6.20 | 6.64 | 6.09 | 5.96 | 6.37 | 6.44 | 6.32 | 6.25 | 6.42 | < 5.00 |  |
| CCCCCCCC(=O)O[C@@H]1[C@@]2(C(C)C)O[C@H]2[C@@H]2O[C@]23[C@]12O[C@H]2C[C@H]1C2=C(CC[C@@]13C)C(=O)OC2 | 6.95 | 7.20 | 6.77 | 6.35 | 6.26 | 6.86 | 6.85 | 6.71 | 6.82 | < 5.00 |  |
| CC(C)[C@]12O[C@H]1[C@@H]1O[C@]13[C@]1(O[C@H]1C[C@H]1C4=C(CC[C@@]13C)C(=O)OC4)[C@@H]2OC(=O)CCCCCCCBr | 6.86 | 7.06 | 6.79 | 6.58 | 6.52 | 6.86 | 6.88 | 7.05 | 7.44 | < 5.00 |  |
| CC(C)[C@]12O[C@H]1[C@@H]1O[C@]13[C@]1(O[C@H]1C[C@H]1C4=C(CC[C@@]13C)C(=O)OC4)[C@@H]2O [TRIPTOLIDE] | 7.48 | 7.68 | 7.68 | 7.37 | 7.66 | 7.25 | 7.52 | 7.31 | 7.72 | < 5.00 | Activity (HepG2 [19]): Active; Activity [20]: Toxic; Activity [21]: Non-Toxic; Activity [22]: Toxic; Activity [23]: Toxic; Activity [24]: Toxic; Activity [25]: Toxic; Activity (HepG2 [10]): Active; mortality at 1.6 µM [26]: 100% |
| CCCCCCC(=O)O[C@@H]1[C@@]2(C(C)C)O[C@H]2[C@@H]2O[C@]23[C@]12O[C@H]2C[C@H]1C2=C(CC[C@@]13C)C(=O)OC2 | 7.28 | 7.38 | 6.72 | 6.62 | 6.67 | 6.77 | 6.92 | 6.87 | 7.09 | < 5.00 |  |
| CC(C)[C@]12O[C@H]1[C@@H]1O[C@]13[C@]1(O[C@H]1C[C@H]1C4=C(CC[C@@]13C)C(=O)OC4)[C@@H]2OC(=O)CCCCCCCCCC[P+](c1ccccc1)(c1ccccc1)c1ccccc1 | 6.45 | 6.38 | 6.83 | 6.21 | 6.72 | 6.73 | 6.67 | 6.42 | 6.58 | 5.99 |  |
| CC(C)[C@]12O[C@H]1[C@@H]1O[C@]13[C@]1(O[C@H]1C[C@H]1C4=C(CC[C@@]13C)C(=O)OC4)[C@@H]2OC(=O)CCCCCBr | 6.83 | 7.07 | 7.10 | 6.41 | 6.44 | 6.41 | 6.77 | 6.94 | 6.68 | < 5.00 |  |
| CC(C)[C@]12O[C@H]1[C@@H]1O[C@]13[C@]1(O[C@H]1C[C@H]1C4=C(CC[C@@]13C)C(=O)OC4)[C@@H]2OC(=O)CCCCBr | 6.64 | 7.08 | 6.72 | 6.14 | 6.42 | 5.92 | 6.58 | 6.63 | 6.79 | < 5.00 |  |
